Source: US20030158041A1, “Methods of and compositions for plant defoliation” (priority 2001, published 2003)

Tested on: American upland cotton
Assay: Spray treatment of mature American upland cotton, evaluated 10, 14 and 21 days after treatment
Format: in vivo
[1] = 10 days after treatment, (+) EBNG = 0.13 lb/acre
[2] = 14 days after treatment, (+) EBNG = 0.13 lb/acre
[3] = 21 days after treatment, (+) EBNG = 0.13 lbs/acre

## CCC(NC(=N)N[N+](=O)[O-])c1ccccc1 (single isomer, unassigned; (+)) [(+) EBNG, (+)-1-(α-ethylbenzyl)-3-nitroguanidine]
[1]
  % Dead Leaves On Plants: 8.3%
  % Dropped Leaves: 90.0%
[2]
  % Dead Leaves On Plants: 5.7%
  % Dropped Leaves: 93.0%
  % New Growth Leaves: 1.0%
  % Open Fruits: 96.0%
[3]
  % New Growth Leaves: 3.7%
  % Open Fruits: 98.3%
